The text below walks through data of ChEMBL document CHEMBL4507274 (2021).

Assay [1] relates to Epidermal growth factor receptor (Homo sapiens), P00533 [L858R]. As to conditions: Compound concentration 100.0 nM.
For assay [2], the system named is Epidermal growth factor receptor (Homo sapiens), P00533 [T790M]. The conditions noted are these: Compound concentration 100.0 nM.
In assay [3] the target is Alpha-2C adrenergic receptor (Homo sapiens) (UniProt P18825). The conditions noted are these: Compound concentration 10.0 uM.
Alpha-2C adrenergic receptor (Homo sapiens), sequence (P18825 whole entry): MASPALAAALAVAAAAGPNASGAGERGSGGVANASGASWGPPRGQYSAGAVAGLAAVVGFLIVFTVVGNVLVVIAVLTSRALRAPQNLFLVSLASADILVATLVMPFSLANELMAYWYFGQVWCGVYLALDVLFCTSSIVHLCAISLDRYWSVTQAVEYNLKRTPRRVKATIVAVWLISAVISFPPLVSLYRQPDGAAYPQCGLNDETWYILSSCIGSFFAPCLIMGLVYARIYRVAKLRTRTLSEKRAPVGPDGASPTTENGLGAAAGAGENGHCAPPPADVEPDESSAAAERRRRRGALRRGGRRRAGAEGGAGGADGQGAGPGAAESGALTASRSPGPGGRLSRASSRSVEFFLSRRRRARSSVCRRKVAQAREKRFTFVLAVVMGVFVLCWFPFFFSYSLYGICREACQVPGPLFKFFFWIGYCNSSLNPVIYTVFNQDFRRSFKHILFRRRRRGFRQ
Assay [4] deals with Tyrosine-protein kinase ABL1 (Homo sapiens) (UniProt P00519). As to the kind of experiment: Abl (h) Upstate kinase activity assay. The conditions noted are these: Compound concentration 10.0 uM.
Tyrosine-protein kinase ABL1 (Homo sapiens), sequence (P00519 whole entry): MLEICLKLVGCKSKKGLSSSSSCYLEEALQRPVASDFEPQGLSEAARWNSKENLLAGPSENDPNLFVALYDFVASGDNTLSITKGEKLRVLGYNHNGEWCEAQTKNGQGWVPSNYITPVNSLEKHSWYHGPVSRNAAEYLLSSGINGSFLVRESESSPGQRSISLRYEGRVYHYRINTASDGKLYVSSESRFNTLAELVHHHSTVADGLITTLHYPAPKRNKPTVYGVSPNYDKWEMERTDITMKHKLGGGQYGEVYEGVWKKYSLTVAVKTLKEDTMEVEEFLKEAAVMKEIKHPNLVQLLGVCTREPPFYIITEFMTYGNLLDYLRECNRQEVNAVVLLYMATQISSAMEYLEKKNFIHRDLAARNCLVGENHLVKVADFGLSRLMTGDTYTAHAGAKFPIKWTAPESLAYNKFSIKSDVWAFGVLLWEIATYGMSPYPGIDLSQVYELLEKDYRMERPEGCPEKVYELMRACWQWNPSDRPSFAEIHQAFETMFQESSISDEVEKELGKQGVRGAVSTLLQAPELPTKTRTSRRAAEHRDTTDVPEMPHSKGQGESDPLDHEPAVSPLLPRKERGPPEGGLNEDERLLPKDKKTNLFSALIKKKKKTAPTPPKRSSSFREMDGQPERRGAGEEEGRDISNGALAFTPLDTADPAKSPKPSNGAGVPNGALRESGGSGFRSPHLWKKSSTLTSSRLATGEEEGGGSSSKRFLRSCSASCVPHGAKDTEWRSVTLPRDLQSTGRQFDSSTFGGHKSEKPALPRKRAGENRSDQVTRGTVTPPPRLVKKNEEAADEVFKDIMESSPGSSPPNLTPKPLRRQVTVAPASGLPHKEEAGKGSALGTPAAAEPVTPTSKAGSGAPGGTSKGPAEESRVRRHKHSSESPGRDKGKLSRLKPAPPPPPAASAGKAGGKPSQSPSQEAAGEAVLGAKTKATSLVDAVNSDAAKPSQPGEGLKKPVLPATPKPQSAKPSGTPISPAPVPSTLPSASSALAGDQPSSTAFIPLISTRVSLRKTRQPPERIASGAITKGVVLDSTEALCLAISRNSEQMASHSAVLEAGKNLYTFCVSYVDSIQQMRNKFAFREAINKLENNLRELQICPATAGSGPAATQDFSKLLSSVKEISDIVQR
The target in assay [5] is Cyclin-dependent kinase 3 (Homo sapiens) (UniProt Q00526). As to the kind of experiment: CDK3/ cyclin E (h) Upstate kinase activity assay. As to conditions: Compound concentration 10.0 uM.
Cyclin-dependent kinase 3 (Homo sapiens), sequence (Q00526 whole entry, looked up): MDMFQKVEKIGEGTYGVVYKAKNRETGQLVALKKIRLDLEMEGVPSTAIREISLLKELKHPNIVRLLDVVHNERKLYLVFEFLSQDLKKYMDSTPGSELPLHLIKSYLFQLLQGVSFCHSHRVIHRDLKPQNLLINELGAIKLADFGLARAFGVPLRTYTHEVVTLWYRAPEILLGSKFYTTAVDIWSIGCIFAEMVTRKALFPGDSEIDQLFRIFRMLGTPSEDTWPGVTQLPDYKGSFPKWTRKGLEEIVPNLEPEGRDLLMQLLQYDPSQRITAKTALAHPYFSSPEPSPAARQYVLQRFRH
In assay [6] the target is CDK6/cyclin D3 (Homo sapiens) (UniProt P30281+Q00534). As to the kind of experiment: CDK6/ cyclin D3 (h) Upstate kinase activity assay. The format is protein-complex assay. The conditions noted are these: Compound concentration 10.0 uM.
For assay [7], the target named is Proto-oncogene tyrosine-protein kinase Src (Homo sapiens) (UniProt P12931). As to the kind of experiment: cSRC (h) Upstate kinase activity assay. The conditions noted are these: Compound concentration 10.0 uM.
Proto-oncogene tyrosine-protein kinase Src (Homo sapiens), sequence (P12931 2-536 limits assumed): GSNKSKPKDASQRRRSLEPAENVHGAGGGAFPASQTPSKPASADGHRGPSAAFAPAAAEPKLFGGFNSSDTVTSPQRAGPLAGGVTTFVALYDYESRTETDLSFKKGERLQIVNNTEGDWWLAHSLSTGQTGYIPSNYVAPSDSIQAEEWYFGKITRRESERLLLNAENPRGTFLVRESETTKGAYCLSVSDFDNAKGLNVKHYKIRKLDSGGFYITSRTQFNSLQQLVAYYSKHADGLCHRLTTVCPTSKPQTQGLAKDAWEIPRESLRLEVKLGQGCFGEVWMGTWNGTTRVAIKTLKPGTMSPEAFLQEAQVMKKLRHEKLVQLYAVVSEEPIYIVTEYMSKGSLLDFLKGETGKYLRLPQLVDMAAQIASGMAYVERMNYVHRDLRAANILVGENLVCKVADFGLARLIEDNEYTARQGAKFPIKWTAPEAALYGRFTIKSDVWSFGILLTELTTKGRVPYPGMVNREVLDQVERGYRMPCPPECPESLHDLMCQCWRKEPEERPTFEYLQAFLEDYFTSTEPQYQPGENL
Assay [8] addresses Ephrin type-A receptor 2 (Homo sapiens) (UniProt P29317). As to the kind of experiment: EphA2 (h) Upstate kinase activity assay. As to conditions: Compound concentration 10.0 uM.
Assay [9] addresses Glycogen synthase kinase-3 beta (Homo sapiens) (UniProt P49841). As to the kind of experiment: GSK3beta (h) Upstate kinase activity assay. As to conditions: Compound concentration 10.0 uM.
Assay [10] has as its target Mitogen-activated protein kinase 9 (Homo sapiens) (UniProt P45984). As to the kind of experiment: JNK2alpha2 (h) Upstate kinase activity assay. The conditions noted are these: Compound concentration 10.0 uM.
Assay [11] deals with T1, Dual specificity mitogen-activated protein kinase kinase 6 (Homo sapiens) (UniProt P52564).
T1 sequence (whole entry): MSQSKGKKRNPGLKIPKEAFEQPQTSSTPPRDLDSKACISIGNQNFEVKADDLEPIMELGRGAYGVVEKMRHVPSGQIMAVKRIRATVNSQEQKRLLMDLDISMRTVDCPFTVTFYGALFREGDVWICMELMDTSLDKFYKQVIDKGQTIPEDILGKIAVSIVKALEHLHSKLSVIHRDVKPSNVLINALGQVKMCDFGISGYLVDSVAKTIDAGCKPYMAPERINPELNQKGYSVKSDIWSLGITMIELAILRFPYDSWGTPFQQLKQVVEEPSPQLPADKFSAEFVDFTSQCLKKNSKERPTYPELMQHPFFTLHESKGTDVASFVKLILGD
As to the kind of experiment: MKK6 (h) Upstate kinase activity assay. As to conditions: Compound concentration 10.0 uM.

In assay [12] the target is Serine/threonine-protein kinase MARK2 (Homo sapiens) (UniProt Q7KZI7). As to the kind of experiment: PAR-1Balpha (h) Upstate kinase activity assay. As to conditions: Compound concentration 10.0 uM.
For assay [13], the target named is RAC-gamma serine/threonine-protein kinase (Homo sapiens) (UniProt Q9Y243). Put plainly: PKBγgamma(h) Upstate kinase activity assay. The conditions noted are these: Compound concentration 10.0 uM.
RAC-gamma serine/threonine-protein kinase (Homo sapiens), sequence (Q9Y243 whole entry): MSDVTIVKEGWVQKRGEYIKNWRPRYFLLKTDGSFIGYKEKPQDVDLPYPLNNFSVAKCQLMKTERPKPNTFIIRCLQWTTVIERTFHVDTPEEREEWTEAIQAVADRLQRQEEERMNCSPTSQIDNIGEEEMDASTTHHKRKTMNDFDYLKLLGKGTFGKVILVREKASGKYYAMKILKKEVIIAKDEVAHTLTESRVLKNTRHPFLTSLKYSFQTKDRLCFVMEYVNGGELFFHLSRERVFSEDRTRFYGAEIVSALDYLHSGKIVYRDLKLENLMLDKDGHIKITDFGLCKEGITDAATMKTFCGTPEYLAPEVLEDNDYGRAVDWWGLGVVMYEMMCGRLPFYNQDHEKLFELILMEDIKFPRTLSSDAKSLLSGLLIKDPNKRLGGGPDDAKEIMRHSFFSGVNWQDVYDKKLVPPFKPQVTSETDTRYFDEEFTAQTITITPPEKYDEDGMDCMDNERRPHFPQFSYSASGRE
The target of assay [14] is Serine/threonine-protein kinase N2 (Homo sapiens) (UniProt Q16513). As to the kind of experiment: PRK2 (h) Upstate kinase activity assay. The conditions noted are these: Compound concentration 10.0 uM.
The species entered for another assay is Rattus norvegicus. Put plainly: Rsk1 (r) Upstate kinase activity assay. The conditions noted are these: Compound concentration 10.0 uM.
Assay [15] has as its target Mitogen-activated protein kinase 11 (Homo sapiens) (UniProt Q15759). As to the kind of experiment: SAPK2b (h) Upstate kinase activity assay. The conditions noted are these: Compound concentration 10.0 uM.
For assay [16], the target named is T2, Mitogen-activated protein kinase 12 (Homo sapiens) (UniProt P53778).
T2 sequence (whole entry): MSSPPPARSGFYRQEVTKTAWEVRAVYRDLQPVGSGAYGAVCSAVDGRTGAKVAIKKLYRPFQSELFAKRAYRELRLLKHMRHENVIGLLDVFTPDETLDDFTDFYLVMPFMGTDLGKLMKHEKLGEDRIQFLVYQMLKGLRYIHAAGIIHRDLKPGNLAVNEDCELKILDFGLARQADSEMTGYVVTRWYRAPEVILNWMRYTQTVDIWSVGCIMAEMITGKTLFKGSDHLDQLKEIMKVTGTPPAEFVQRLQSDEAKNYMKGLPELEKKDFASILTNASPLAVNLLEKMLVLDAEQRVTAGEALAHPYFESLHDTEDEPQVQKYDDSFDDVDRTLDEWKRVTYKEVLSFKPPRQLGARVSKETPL
As to the kind of experiment: SAPK3 (h) Upstate kinase activity assay. As to conditions: Compound concentration 10.0 uM.

In a further assay the test system is A498. As to the kind of experiment: Kidney A-498 cell line MDS Pharma Services Proliferation Assay. The class given is functional, cell-based, Homo sapiens.
The subject of the next assay is HC-4. As to the kind of experiment: Liver HC-4 cell line MDS Pharma Services Proliferation Assay. The class given is functional, cell-based, Homo sapiens.
The next assay concerns HepG2. Put plainly: Liver HepG2 cell line MDS Pharma Services Proliferation Assay. The class given is functional, cell-based, Homo sapiens.
Assay [17] is described as follows: Melanoma B16-FO cell line MDS Pharma Services Proliferation Assay. The format is functional, cell-based.
For assay [18], the target named is Tyrosine-protein kinase Blk (Mus musculus) (UniProt P16277). Put plainly: Blk (m) Upstate kinase activity assay. As to conditions: Compound concentration 10.0 uM.

As a reminder, the residual activity is what remains of the control signal, in per cent. As a reminder, the inhibition is the drop in the measured response relative to a control, in per cent. As a reminder, the pIC50 is the IC50 on a negative log10 scale, so that one unit is a factor of ten. Read a high pIC50 as a low IC50. As usually defined, the TGI is the concentration giving total growth inhibition. The low end stands for more potent growth arrest, the high end for less potent growth arrest.

pIC50: −log10 of the molar value.

Mitogen-activated protein kinase 11 (Homo sapiens), sequence (Q15759 whole entry): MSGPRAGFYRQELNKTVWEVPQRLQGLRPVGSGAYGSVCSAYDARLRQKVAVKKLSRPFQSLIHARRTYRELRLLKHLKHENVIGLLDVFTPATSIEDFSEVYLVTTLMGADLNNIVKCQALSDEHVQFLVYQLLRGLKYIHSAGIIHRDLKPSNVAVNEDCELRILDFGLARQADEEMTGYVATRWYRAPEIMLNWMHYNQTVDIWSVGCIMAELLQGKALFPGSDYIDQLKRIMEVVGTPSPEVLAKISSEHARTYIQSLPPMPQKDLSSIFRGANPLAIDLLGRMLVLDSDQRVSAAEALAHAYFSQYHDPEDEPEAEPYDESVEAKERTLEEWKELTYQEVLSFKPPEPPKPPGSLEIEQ
Mitogen-activated protein kinase 9 (Homo sapiens), sequence (P45984 whole entry, looked up): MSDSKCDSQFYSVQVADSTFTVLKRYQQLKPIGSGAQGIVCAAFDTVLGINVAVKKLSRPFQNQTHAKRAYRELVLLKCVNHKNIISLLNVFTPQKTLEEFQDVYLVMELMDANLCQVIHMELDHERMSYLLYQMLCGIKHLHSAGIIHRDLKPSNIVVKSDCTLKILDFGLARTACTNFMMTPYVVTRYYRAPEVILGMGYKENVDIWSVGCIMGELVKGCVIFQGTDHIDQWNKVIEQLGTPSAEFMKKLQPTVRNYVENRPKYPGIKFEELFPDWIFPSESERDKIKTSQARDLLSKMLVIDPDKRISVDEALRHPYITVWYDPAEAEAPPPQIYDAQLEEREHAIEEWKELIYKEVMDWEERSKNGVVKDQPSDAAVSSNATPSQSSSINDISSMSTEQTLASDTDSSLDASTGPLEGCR
Ephrin type-A receptor 2 (Homo sapiens), sequence (P29317 whole entry): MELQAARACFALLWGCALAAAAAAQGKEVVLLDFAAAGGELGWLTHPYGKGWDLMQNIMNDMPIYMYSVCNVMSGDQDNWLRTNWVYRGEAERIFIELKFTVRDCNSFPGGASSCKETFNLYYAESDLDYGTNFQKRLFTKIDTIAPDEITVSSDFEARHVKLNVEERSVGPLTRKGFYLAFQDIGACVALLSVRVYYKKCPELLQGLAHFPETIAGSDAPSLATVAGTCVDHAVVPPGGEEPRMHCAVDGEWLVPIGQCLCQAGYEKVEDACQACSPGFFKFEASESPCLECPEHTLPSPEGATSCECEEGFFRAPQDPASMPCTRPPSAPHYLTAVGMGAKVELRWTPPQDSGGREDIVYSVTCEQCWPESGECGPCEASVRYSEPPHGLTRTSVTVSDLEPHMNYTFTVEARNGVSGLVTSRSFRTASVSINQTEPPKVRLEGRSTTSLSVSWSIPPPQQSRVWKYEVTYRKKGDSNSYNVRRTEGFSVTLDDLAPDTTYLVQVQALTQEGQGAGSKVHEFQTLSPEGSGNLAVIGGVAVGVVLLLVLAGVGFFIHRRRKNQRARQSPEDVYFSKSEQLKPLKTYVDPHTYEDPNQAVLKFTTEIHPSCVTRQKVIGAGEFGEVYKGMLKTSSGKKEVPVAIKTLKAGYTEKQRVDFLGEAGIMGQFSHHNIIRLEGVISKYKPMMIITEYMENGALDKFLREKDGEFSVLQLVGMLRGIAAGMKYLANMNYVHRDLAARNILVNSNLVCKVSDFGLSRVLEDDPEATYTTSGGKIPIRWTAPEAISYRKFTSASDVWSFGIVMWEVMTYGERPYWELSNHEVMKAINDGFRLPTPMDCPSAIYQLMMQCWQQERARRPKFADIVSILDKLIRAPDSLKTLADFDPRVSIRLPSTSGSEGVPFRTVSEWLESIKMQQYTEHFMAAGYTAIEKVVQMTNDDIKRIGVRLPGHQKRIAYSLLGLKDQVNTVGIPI

In the case of `Cn1cc(Cl)c2c(Oc3c(F)cc(Nc4cc(Cl)nc(N)n4)cc3F)ccnc21` [BAY-4900], the residual activity in assay [1] was 98%; in [2] it was 88%. Moreover, the inhibition in assay [3] is -6.8%.
With `Cc1c[nH]c2nccc(Oc3c(F)cc(Nc4cc(Cl)nc(N)n4)cc3F)c12` [BAY-549], the inhibition was 14% in [4]; 33% in [5]; 9% in assay [6]; -4% in assay [7]; 4% in assay [8]; -1% in [9]. Besides, the inhibition in assay [10] is 16%; in [11], 6%; in assay [12], 33%; in assay [13] it was 87%; in assay [14], 70%; in the assay filed under Rattus norvegicus, 79%. The inhibition is 1% in assay [15], 4% in [16] and 16% in assay [18]. In addition, the pIC50 with A498 (Homo sapiens, A498) was 5.11; in the assay with HC-4 (Homo sapiens, HC-4), 5.68; in the assay on HepG2 (Homo sapiens, HepG2), 5.51. Further, the TGI with A498 (Homo sapiens, A498) is 70 µM; with HC-4 (Homo sapiens, HC-4), 13 µM; in the assay with HepG2 (Homo sapiens, HepG2) it was 54 µM. Moreover, the CC50 with A498 (Homo sapiens, A498, read-out: LC50 (the source's name)) is greater than 100 µM; with HC-4 (Homo sapiens, HC-4, read-out: LC50 (the source's name)) it was 82 µM; with HepG2 (Homo sapiens, HepG2, read-out: LC50 (the source's name)), greater than 100 µM; in assay [17] (Mus musculus, B16-F10, read-out: LC50 (the source's name)), greater than 100 µM. Also, the “Mean % growth (n = 2) for 0.01 µM probe concentration” value with A498 (± SEM 2 % growth) turned out to be 99%; with HC-4 (± SEM 5 % growth), 102%; with HepG2 (± SEM 4 % growth), 101%; in assay [17] (± SEM 5 % growth) it was 98%. The “Mean % growth (n = 2) for 10.0 µM probe concentration” value in the assay on A498 (± SEM 2 % growth) is 26%; in the assay with HC-4 (± SEM 8 % growth), 12%; in the assay with HepG2 (± SEM 4 % growth), 18%; in [17] (± SEM 9 % growth), 53%. Also, the “Mean % growth (n = 2) for 100.0 µM probe concentration” value with A498 (± SEM 2 % growth) is -1%; in the assay on HC-4 (± SEM 8 % growth), -56%; with HepG2 (± SEM 6 % growth) it was -3%; in assay [17] (± SEM 5 % growth), -46%. The “Mean % growth (n = 2) for 0.1 µM probe concentration” value is given as 93% in the assay on A498 (± SEM 5 % growth), 94% in the assay with HC-4 (± SEM 1 % growth), 95% in the assay on HepG2 (± SEM 6 % growth) and 94% in [17] (± SEM 4 % growth). Besides, the “Mean % growth (n = 2) for 1.0 µM probe concentration” value in the assay on A498 (± SEM 5 % growth) turned out to be 98%; in the assay with HC-4 (± SEM 5 % growth) it was 59%; in the assay with HepG2 (± SEM 2 % growth), 62%; in assay [17] (± SEM 1 % growth) it was 106%.
